Test results taken from patent publication US20080226596A1, “Therapeutic compositions and methods useful in treating hepatitis” (priority 2006, published 2008).

What was measured:
PTP1B = target: T1, PTP1B (Homo sapiens, UniProt P18031); assay: In vitro PTPase assay, GST/PTP1B; format: biochemical; details: compared with levamisole, pentamidine, ketoconazole
T1 construct: GST; purchased Upstate Biotechnology Inc. (Lake Placid, N.Y.)
Experimental: In vitro PTPase activities were measured using the commercial protein tyrosine phosphatase assay kit (Upstate Biotechnology, Inc. (“UBI”)) following established procedure known to one of skill in the art. This assay measures the in vitro dephosphorylation of a synthetic phosphotyrosine peptide of the sequence Arg-Arg-Leu-Ile-Glu-Asp-Ala-Gle-Tyr-Ala-Ala-Arg-Gly, wherein the tyrosine is phosphorylated (SEQ ID NO: 3). Briefly, 0.01 µg of GST/PTPase fusion proteins was incubated in 50 μL of Tris buffer (10 mM Tris, pH 7.4) containing different concentrations of inhibitors or chemicals (0-1,000 μg/ml) at 22° C. for 10 minutes, followed by addition of 0.2 mM of the phosphotyrosine peptide and incubation at 22° C. for 18 hours. 100 μL of Malachite Green solution was added and incubated for 5 minutes, and the absorbance at 660 nm was measured after 5 minutes.
In vitro PTPase assays were used to determine the effects of levamisole (Sigma), pentamidine (American Pharmaceutical Partners, Inc.), and ketoconazole (Sigma) on recombinant PTPases, following established procedures (Pathak et al., J. Imumol. 167, 3391 (2001); Pathak et al., Leukemia 16, 2285 (2002), Yi et al., J. Immunol. 169, 5978 (2002)) using a synthetic phosphotyrosine peptide or DiFMUP as the substrate as detailed above in section I.A.2.

[1] = tested on: DU145 human prostate carcinoma xenografts; assay: DU145 xenografts in nude mice; format: in vivo; details: 440 mg/kg daily
Experimental: The dosage of sodium stibogluconate corresponds to approximately 440 mg Sb/kg body weight (average mouse body weight 27 g), substantially higher than the standard therapeutic dose of 20 mg Sb/kg and the high dose (143 mg Sb/kg) that was clinically used by accident without serious toxicity. This dose of sodium stibogluconate was based on a previous observation in a pilot study that mice could tolerate daily dose of 20 mg Sb (approximately 700-800 mg Sb/kg). […] In light of the relatively rapid rate of clearance of the drug in vivo, 440 mg Sb/kg dosage was used to ensure the detection of the effectiveness of the drug for this initial study.
For each of the cell lines, each of 16 mice received subcutaneous injection at the chest area of 3×10^6 cells/site (WM9) or 2×10^6 cells/site (DU145), two sites/mouse, on day 0. Mice were separated into four groups of four to receive treatment, injected into the thigh area starting on day 2. Tumor size was measured with a caliper to determine the two perpendicular diameters of each tumor. Tumor volume was calculated using the method of the NCI (length×width 2 in millimeters/2=volume in cubic millimeters). […]

LoVo cells = assay: LoVo colon cancer cell growth, MTT assay; format: cell-based, human; details: 100 μg/ml, day 6
Experimental: NIH3T3 (Yi, et al., Blood 85, 87 (1995)), WM9 (Forsberg, et al., Proc. Nat. Acad Sci. USA 90, 393 (1993)), DU145 (Mickey, et al., Cancer Res. 37, 4049 (1977)), LoVo (Drewinko, et al., Cancer Res. 36, 467 (1976)), HEY (Buick, et al., Cancer Res. 45, 3668 (1985)), U251 (Yoshida, et al., Cancer 50, 410 (1982)), A549 (Giard, et al., J. Natl. Cancer Inst. 51, 1417 (1973)) and SK-N-SH (Helson, et al., Cancer Res. 35, 2594 (1975)) cell lines have been described and were cultured in RPMI 1640 supplemented with 10% fetal calf serum (FCS). For measurement of sodium stibogluconate effects on cell growth in vitro, cells were cultured in the absence (−) or presence (+) of various amounts of sodium stibogluconate for 6 days with viable cells quantified by MTT assays (Mosmann, J. Immunol. Methods 65, 55 (1983)). Percentages of growth inhibition by sodium stibogluconate were calculated (.+−.x

DU145R cells = assay: DU145R cell growth, MTT assay; format: cell-based, human; details: day 6, compared with parental DU145
Experimental: DU145 cells were cultured in the presence of sodium stibogluconate (100 µg/ml) in 48 well plates for 3 weeks. Cells from a well containing a single colony were transferred to flasks, cultured in sodium stibogluconate-free medium for 3 weeks and used as DU145R cells for further characterization. Growth of DU145R cells in the absence or presence of sodium stibogluconate in day 6 culture was determined by MTT assays. cDNAs of the coding region of PRLs were derived by RT-PCR from DU145 and DU145R cells and sequenced using primers described below.

T1 sequence (P18031 whole entry, species assumed): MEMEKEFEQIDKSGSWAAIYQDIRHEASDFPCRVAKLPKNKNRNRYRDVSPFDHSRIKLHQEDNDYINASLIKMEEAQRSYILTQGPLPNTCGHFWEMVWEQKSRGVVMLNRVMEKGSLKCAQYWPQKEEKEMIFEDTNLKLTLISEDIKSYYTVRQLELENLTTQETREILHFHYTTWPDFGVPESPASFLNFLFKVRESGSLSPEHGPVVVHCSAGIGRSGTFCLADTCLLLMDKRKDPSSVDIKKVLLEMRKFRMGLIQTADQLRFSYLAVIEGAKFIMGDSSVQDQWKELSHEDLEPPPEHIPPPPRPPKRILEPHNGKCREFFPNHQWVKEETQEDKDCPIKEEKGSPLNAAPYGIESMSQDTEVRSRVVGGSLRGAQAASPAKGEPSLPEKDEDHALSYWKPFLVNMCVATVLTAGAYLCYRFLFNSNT

## O.O.O.O.O.O.O.O.O.O=C([O-])[C@@H]1[O][Sb]2([O-])([O][Sb]34([OH])[O][C@H]([C@H](O)CO)[C@H]([O]3)[C@H](C(=O)[O-])[O]4)[O][C@H]([C@H](O)CO)[C@@H]1[O]2.[Na+].[Na+].[Na+] [sodium stibogluconate]
PTP1B
  inhibition of PTP1B: only modestly effective
[1]
  histology of major organs: unremarkable
[1]; until the end of the study
  survival of DU145-inoculated mice: survived
LoVo cells
  killing of LoVo cells: near-complete cell killing
DU145R cells
  growth of DU145R cells with sodium stibogluconate: growth resistance to sodium stibogluconate
